The text below walks through data of US8946409B2, “Polycyclic β lactam derivatives for the treatment of cancer” (Board of Regents, The University of Texas System, priority 2011, dated 2015).

One data set relates to PANC-1. The data set can be described thus: MTT assay, PANC-1 cells. It is filed as cell-based, human. The procedure: (§1) 8×10^3 cells/well were plated in a […]. Stock solutions of the agents were made in DMSO. Dilution of the compounds were in media with 10% FBS (fetal bovine serum). The cells were incubated in the drug for 72 hours and cell viability was determined by the MTT assay. IC50 was then calculated.

A further data set relates to A-549. The data set is described as follows: MTT assay, A-549 cells. The class given is cell-based, human. To be noted: A-549, Non-Small Cell Carcinoma of the Lung, 72 hours, Table 1, read-out: IC50 in Cancer Cells Using the MTT Assay. The method, then: as §1
For orientation: Tetrazolium dyes change colour on reduction, which living cells bring about.

A further data set relates to MDA-231. The data set can be described thus: MTT assay, MDA-231 cells. The class given is cell-based, human. To be noted: MDA-231, breast cancer, 72 hours, Table 1, read-out: IC50 in Cancer Cells Using the MTT Assay. The method, then: as §1
A further data set has as its system HT-29. The data set is described as follows: MTT assay, HT-29 cells. As to conditions: HT-29, colon carcinoma, 72 hours, Table 1, read-out: IC50 in Cancer Cells Using the MTT Assay. The class given is cell-based, human. The method, then: as §1
The test system of the next data set is BRO. The data set can be described thus: MTT assay, BRO cells. To be noted: melanoma, 72 hours, Table 1, read-out: IC50 in Cancer Cells Using the MTT Assay. It is filed as cell-based, human. The procedure:
as §1

Another data set has as its system PC-3. The data set is described as follows: MTT assay, PC-3 cells. The class given is cell-based, human. To be noted: PC-3, carcinoma of the prostate, 72 hours, Table 1, read-out: IC50 in Cancer Cells Using the MTT Assay. The method, then: as §1
Data set [1] in a line: Body weight of tumor-bearing mice during treatment. The class given is in vivo, athymic nude mice. To be noted: determined weekly through the treatment regimen. The method, then: (§2) The anti-tumorigenic activity of TX-262 was assessed in 4 week old male athymic nude mice by using a luciferase gene, stably-expressing, highly aggressive line of human pancreatic cells, MPanc96. 2×10^5/50 ul luciferase-labeled MPanc96 cells were injected directly into the mouse pancreas. […] Bioluminescent imagining was utilized to estimate tumor volume and location and mice were then divided into two groups such that the mean tumor size was equal between the groups. For the next five weeks mice in the control group were treated with DMSO only; while Group II mice were treated Monday through Friday as follows: 100 mg/K bw i.p. at zero time [AM] and a booster dose of 25 mg/K bw i.p. 90 minutes later. Each week body weight and mortality were recorded and tumor growth was monitored by bioluminescence imaging.

In the next data set the test system is CoLo35FG. The data set can be described thus: MTT assay, CoLo35FG cells. The class given is cell-based. To be noted: Homo sapiens, Table 2, read-out: IC50 against Human Pancreatic Cancer Lines Using the MTT Assay. The procedure:
as §1

The next data set concerns Miapaca-2. The data set is described as follows: MTT assay, Miapaca-2 cells. The class given is cell-based, human. To be noted: for IC50: Homo sapiens, MIA PaCa-2, Miapaca-2, Table 2, read-out: IC50 against Human Pancreatic Cancer Lines Using the MTT Assay. The procedure: as §1
For a further data set, the system named is Pan02.03. The data set can be described thus: MTT assay, Pan02.03 cells. The class given is cell-based. To be noted: Homo sapiens, Table 2, read-out: IC50 against Human Pancreatic Cancer Lines Using the MTT Assay. The method, then:
as §1

Another data set concerns BXPC-3. The data set can be described thus: MTT assay, BXPC-3 cells. The class given is cell-based. As to conditions: Homo sapiens, Table 2, read-out: IC50 against Human Pancreatic Cancer Lines Using the MTT Assay. The method, then: as §1
In a further data set the test system is SW-1990. The data set can be described thus: MTT assay, SW-1990 cells. The class given is cell-based. As to conditions: Homo sapiens, SW1990, Table 2, read-out: IC50 against Human Pancreatic Cancer Lines Using the MTT Assay. The procedure: as §1
In another data set the test system is ASCP-1. The data set is described as follows: MTT assay, ASCP-1 cells. The class given is cell-based. To be noted: Homo sapiens, Table 2, read-out: IC50 against Human Pancreatic Cancer Lines Using the MTT Assay. The method, then:
as §1

The test system of another data set is MPanc96 cells. The data set is described as follows: In vivo anti-tumorigenic activity, luciferase-labeled MPanc96 cells injected into mouse pancreas. Also on record: species or system athymic nude mice. The procedure:
as §2
Bioluminescence imaging utilized a cryogenically cooled image system coupled to a data acquisition computer running LivingImage Software [Xenogen Corp., Alameda Calif.]. Prior to imaging, the mice were anesthetized in an acrylic chamber using 1.5% isofluoroane/air mixture and injected i.p. with 40 mg/ml of luciferin potassium salt in PBS at a dose of 150 mg/K bw.
A digital grayscale animal image was acquired followed by acquisition and overlay of a pseudo color image representing the spacial distribution of detected photons emerging from active luciferase within the mouse. […]

Where [2] appears, read: PANC-1, pancreatic cancer, 72 hours, Table 1, read-out: IC50 in Cancer Cells Using the MTT Assay.
Setting [3] is: Homo sapiens, PANC-1, PANC-1, Table 2 (average of runs), read-out: IC50 against Human Pancreatic Cancer Lines Using the MTT Assay.

Like-named read-outs stand apart in the source and are kept apart here. Some results are limits rather than exact numbers.

As a reminder, the IC50 is the point on the concentration scale where inhibition reaches its midpoint. On to `CN1CCN(C(=O)CCC(=O)Nc2cc3c4ccccc4ccc3c3ccccc23)CC1` [Compound 1b, 1-N-6′-Chrysenyl-4′-4-N-methylpiperazine-butane-1,4-dicarboxyamide], for which the IC50 with PANC-1 (setting [2]) is over 100 µM; in the data set with A-549, over 100 µM; in the data set on MDA-231, 12.2 µM; in the data set on HT-29, 16.7 µM; in the data set on BRO, 33.6 µM; in the data set on PC-3, 27.3 µM.
Regarding `CS(=O)(=O)O[C@H]1C(=O)N(c2cc3c4ccccc4ccc3c3ccccc23)C1c1ccccn1` (stereo partly drawn) [Compound 12, (3R)-1-(chrysen-6-yl)-2-oxo-4-(pyridin-2-yl)azetidin-3-yl methanesulfonate], the IC50 is 0.43 µM in the data set on PANC-1 (Homo sapiens, PANC-1, 72 h, PANC-1, pancreatic cancer, 72 hours, Table 1, read-out: IC50 in Cancer Cells Using the MTT Assay); under 1 µM with PANC-1 (setting [3]); 0.75 µM in the data set on PANC-1 (PANC-1, Table 2 (average of runs), read-out: IC50 against Human Pancreatic Cancer Lines Using the MTT Assay); 2.7 µM with CoLo35FG; 12 µM in the data set with Miapaca-2; 0.96 µM in the data set with A-549 (Homo sapiens, A549). Moreover, the IC50 was 0.39 µM with Pan02.03; 0.43 µM in the data set on MDA-231 (Homo sapiens, MDA-MB-231); 0.36 µM with HT-29 (Homo sapiens); 0.43 µM in the data set with BXPC-3; 0.64 µM in the data set on BRO (Homo sapiens); 1.3 µM in the data set with SW-1990. The IC50 in the data set with ASCP-1 was 1.5 µM; with PC-3 (Homo sapiens) it was 0.51 µM. The “Weights of mice, treated versus control” value in data set [1] is “No significant differences”. Besides, in the data set on Miapaca-2 (GEM-resistant line Miapaca-2), the “Effective concentration relative to the concentration required by GEM” value is “approximately one-half”. Moreover, the “Viable tumor mass relative to that in control mice” value with MPanc96 cells (at 5 weeks, 100 mg/K bw i.p. plus 25 mg/K bw i.p. 90 minutes later, Monday through Friday, bioluminescence imaging) is given as “approximately 33%”. Further, in the data set on MPanc96 cells (at 6 weeks, control mice 20%), the “Surviving (viable) mice” value came to 80%.
Take `Nc1ccn([C@@H]2O[C@H](CO)[C@@H](O)C2(F)F)c(=O)n1` [GEM, gemcitabine]: the IC50 in the data set on PANC-1 (setting [3]) was over 300 µM; in the data set on Miapaca-2, 25.7 µM; in the data set with Pan02.03, 0.15 µM; in the data set with BXPC-3, 0.3 µM; in the data set with SW-1990, 0.4 µM; in the data set on ASCP-1 it was 0.1 µM. Besides, the “IC50 against Human Pancreatic Cancer Lines Using the MTT Assay” value in the data set on PANC-1 (PANC-1, Table 2 (average of runs)) was “inactive”.
As for `N.N.[Cl][Pt][Cl]` [Cisplatin, cisplatin], the IC50 in the data set with PANC-1 (setting [2]) is over 100 µM; with A-549 it was over 100 µM; in the data set with MDA-231, 10.1 µM; in the data set on HT-29, 17 µM; in the data set on BRO it was 5.7 µM; with PC-3, 2.1 µM.
